Earlier results in patent publication US8227599B2, “Adsorbents comprising anthraquinone dye-ligends for the separation of biological materials” (BASF SE, priority 2005, dated 2012).

System: Aspergillus terreus NADP-glutamate Dehydrogenase

For Nc1c(S(=O)(=O)[O-])cc(Nc2ccc(Nc3nc(Cl)nc(Nc4ccccc4S(=O)(=O)[O-])n3)c(S(=O)(=O)[O-])c2)c2c1C(=O)c1ccccc1C2=O.[Na+].[Na+].[Na+] [Cibacron Blue 3GA], the “Binding of NADP-GDH to the dye” value is listed as “does not bind”.
